For 28 compounds, IC50 results are on record in patent US20090062267A1, “L-ALANINE DERIVATIVES AS a5beta1 ANTAGONISTS” (ASTRAZENECA AB, priority 2007, published 2009).

In this test the target is recombinant human α5β1 (Homo sapiens, UniProt P05556+P08648). Kind of test: In Vitro Binding Assay (a): inhibition of binding of α5β1 integrin to a fragment of human fibronectin (Fn9-10), Origen electrochemiluminescence. The settings on record: geometric mean where tested more than once. From the text: The assay determined the ability of compounds to inhibit binding of α5β1 integrin to a cognate ligand, a fragment of human fibronectin. The assay used Origen technology (IGEN International) to measure the compound activity. Briefly, α5β1 integrin was coated onto epoxy-paramagnetic beads (Dynal Biotech UK, Bromborough, Wirral, CH62 3QL, UK, Catalogue No 140.11) and biotinylated-fibronectin ligand was coupled to strepatividin labeled Tag-NHS-Ester (BioVeris Corporation, Witney, Oxfordshire, OX28 4GE, UK, Catalogue No 110034). The ruthenium-labeled tag emits an electrochemiluminescence signal upon stimulation which is detected by the Origen reader. Thus, interaction of integrin and ligand causes association of bead and tag, and the resulting electrochemiluminescence signal reflects the level of integrin interaction with fibronectin.
Chain of recombinant human α5β1 (P08648 42-1049): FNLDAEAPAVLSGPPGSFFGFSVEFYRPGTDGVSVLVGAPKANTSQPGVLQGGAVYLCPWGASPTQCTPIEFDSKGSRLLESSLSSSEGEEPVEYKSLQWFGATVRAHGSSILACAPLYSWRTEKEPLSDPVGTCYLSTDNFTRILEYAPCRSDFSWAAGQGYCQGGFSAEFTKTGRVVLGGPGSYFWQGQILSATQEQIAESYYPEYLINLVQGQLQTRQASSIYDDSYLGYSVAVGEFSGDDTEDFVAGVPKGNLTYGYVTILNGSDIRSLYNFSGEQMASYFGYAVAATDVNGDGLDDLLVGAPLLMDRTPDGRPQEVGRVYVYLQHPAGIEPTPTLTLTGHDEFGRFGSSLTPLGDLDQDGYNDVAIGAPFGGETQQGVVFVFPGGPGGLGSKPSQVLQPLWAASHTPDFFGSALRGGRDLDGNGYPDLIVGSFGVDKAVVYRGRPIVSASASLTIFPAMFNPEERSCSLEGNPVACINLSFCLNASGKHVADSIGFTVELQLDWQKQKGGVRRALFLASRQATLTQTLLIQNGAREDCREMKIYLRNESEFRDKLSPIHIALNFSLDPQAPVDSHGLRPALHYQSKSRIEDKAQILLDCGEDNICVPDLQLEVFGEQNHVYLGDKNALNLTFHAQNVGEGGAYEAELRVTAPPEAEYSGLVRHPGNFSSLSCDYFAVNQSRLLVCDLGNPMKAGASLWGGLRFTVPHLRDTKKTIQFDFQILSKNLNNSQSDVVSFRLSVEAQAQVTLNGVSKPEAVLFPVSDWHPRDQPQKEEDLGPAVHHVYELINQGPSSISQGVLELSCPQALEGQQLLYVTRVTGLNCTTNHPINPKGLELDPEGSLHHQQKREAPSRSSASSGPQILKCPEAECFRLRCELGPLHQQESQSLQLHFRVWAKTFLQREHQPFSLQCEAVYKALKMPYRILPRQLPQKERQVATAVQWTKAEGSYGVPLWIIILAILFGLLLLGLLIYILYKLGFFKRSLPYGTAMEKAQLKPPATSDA
Chain of recombinant human α5β1 (P05556 21-798): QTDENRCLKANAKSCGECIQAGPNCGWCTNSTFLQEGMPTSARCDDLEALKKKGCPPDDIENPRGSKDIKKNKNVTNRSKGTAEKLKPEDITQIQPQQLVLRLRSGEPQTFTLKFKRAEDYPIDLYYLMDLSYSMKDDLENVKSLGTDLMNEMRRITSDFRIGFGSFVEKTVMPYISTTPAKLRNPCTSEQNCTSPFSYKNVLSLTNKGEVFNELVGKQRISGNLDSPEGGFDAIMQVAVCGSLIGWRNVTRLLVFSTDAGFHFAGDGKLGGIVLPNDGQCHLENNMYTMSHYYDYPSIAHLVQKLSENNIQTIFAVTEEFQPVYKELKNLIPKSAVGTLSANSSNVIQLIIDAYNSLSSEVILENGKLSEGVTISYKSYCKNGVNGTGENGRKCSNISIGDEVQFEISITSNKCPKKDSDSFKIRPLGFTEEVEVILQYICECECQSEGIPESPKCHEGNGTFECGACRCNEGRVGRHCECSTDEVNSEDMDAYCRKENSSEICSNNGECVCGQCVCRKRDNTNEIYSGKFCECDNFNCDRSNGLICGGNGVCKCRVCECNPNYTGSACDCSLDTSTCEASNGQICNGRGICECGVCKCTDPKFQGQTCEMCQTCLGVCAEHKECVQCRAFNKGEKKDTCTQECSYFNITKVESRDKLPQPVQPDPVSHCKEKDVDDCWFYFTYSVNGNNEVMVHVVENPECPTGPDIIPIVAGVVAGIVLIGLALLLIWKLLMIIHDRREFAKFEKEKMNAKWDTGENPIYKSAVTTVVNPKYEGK
20 μg of recombinant human α5β1 was coated onto 4×10(7) epoxy-paramagnetic beads according to manufacturers instructions at 4° C. for 24 hours. Integrin coating and corresponding activity was subsequently measured for each batch but typically, 25 ng of coated protein was used per assay well.
A DNA fragment encoding the domains 9-10 (amino-acids 1325-1509) of human fibronectin (Swiss-Prot Accession No. P02751) was isolated from cDNA libraries using standard molecular biology and PCR cloning techniques. The cDNA fragment was sub-cloned into a pT73.3 expression vector containing a GST-epitope tag (developed at AstraZeneca; Bagnall et al., Protein Expression and Purification, 2003, 27: 1-11). Following expression in E. coli, the expressed protein, termed Fn9-10, was purified using the GST-tag using standard purification techniques. The recombinant Fn9-10 was subsequently biotinylated using a EZ-link Sulfo-NHS-LC-Biotinylation kit (Perbio Science UK Ltd., Cramlington, Northumberland, NE23 1WA, UK, Catalogue No. 21335) and made to give a final concentration of approximately 1 mg/ml. Tag-NHS-Ester was labeled with streptavidin by incubation at room temperature following manufacturers instructions and buffer-exchanged into PBS to give a concentration of 0.5 mg/ml. Immediately prior to the assay, biotinylated-Fn9-10 and Streptavidin-labeled Tag were diluted in Assay Buffer to give a final concentrations of 0.6 ug/ml and 1.5 ug/ml respectively. The Fn9-10 and Tag solutions were then mixed together in equal volumes and incubated on ice for at least 30 minutes prior to the assay.
Aliquots (20 μl) of each compound dilution were placed into each well of a 384-well round bottomed polypropylene plate (Matrix Technologies, Wilmslow, Cheshire, SK9 3LP, Catalogue No. 4340 384).
For the assay, 25 ng (20 ul) of a5b1-bead suspension and 40 μl of the Fn9-10/Tag pre-incubated solution were added to each well containing 20 μl of compound or control solution. Assay plates were then incubated at room temperature for a minimum of 6 hours before being analysed on an Origen plate reader. The minimum value was subtracted from all values, and the signal was plotted against compound concentration to generate IC50 data.
The data in the above table was generated in an assay substantially as described above in relation to Binding Assay (a). Some of the compounds shown in the table were tested more than once in the assay. For those compounds the IC50 value shown is the geometric mean of the measured IC50 values.

For the compound `CNc1cccc(CCOc2ccc(C[C@H](NC(=O)c3cnccc3Cl)C(=O)O)cc2)n1` [Example 2.8, N-[(4-chloropyridin-3-yl)carbonyl]-O-{2-[6-(methylamino)pyridin-2-yl]ethyl}-L-tyrosine], the IC50 (commonly the concentration needed to halve the response being measured) stood at 8 nM.

As to `CNc1cccc(CCOc2ccc(C[C@H](NC(=O)c3sccc3C)C(=O)O)cc2)n1` [Example 1.8, O-{2-[6-(methylamino)pyridin-2-yl]ethyl}-N-[(3-methyl-2-thienyl)carbonyl]-L-tyrosine], the IC50 amounted to 19 nM.

As for `CNc1cccc(CCOc2ccc(C[C@H](NC(=O)c3ncccc3Cl)C(=O)O)cc2)n1` [Example 1.23, N-[(3-chloropyridin-2-yl)carbonyl]-O-{2-[6-(methylamino)pyridin-2-yl]ethyl}-L-tyrosine], the IC50 worked out at 24 nM. As to `CNc1cccc(CCOc2ccc(C[C@H](NC(=O)c3ccc(C)nc3Cl)C(=O)O)cc2)n1` [Example 1.2, N-[(2-chloro-6-methylpyridin-3-yl)carbonyl]-O-{2-[6-(methylamino)pyridin-2-yl]ethyl}-L-tyrosine], the IC50 was found to be 19 nM.

Turning to `CCSc1ncccc1C(=O)N[C@@H](Cc1ccc(OCCc2cccc(NC)n2)cc1)C(=O)O` [Example 2.3, N-{[2-(ethylthio)pyridin-3-yl]carbonyl}-O-{2-[6-(methylamino)pyridin-2-yl]ethyl}-L-tyrosine], the IC50 was 31 nM. Regarding `CNc1cccc(CCOc2ccc(C[C@H](NC(=O)c3ccncc3C)C(=O)O)cc2)n1` [Example 1.21, O-{2-[6-(methylamino)pyridin-2-yl]ethyl}-N-(3-methylisonicotinoyl)-L-tyrosine], the IC50 stood at 10 nM. In the case of `CNc1cccc(CCOc2ccc(C[C@H](NC(=O)c3ccc(Cl)nc3Cl)C(=O)O)cc2)n1` [Example 2.4, N-[(2,6-dichloropyridin-3-yl)carbonyl]-O-{2-[6-(methylamino)pyridin-2-yl]ethyl}-L-tyrosine], the IC50 was found to be 39 nM. For the compound `O=C(N[C@@H](Cc1ccc(CCCc2ccc3c(n2)NCCC3)nc1)C(=O)O)c1sccc1Cl` [Example 10, N-[(3-chloro-2-thienyl)carbonyl]-3-{6-[3-(5,6,7,8-tetrahydro-1,8-naphthyridin-2-yl)propyl]pyridin-3-yl}-L-alanine], the IC50 amounted to 2.5 nM. Turning to `CNc1cccc(CCOc2ccc(C[C@H](NC(=O)c3ncccc3C)C(=O)O)cc2)n1` [Example 2.7, O-{2-[6-(methylamino)pyridin-2-yl]ethyl}-N-[(3-methylpyridin-2-yl)carbonyl]-L-tyrosine], the IC50 was found to be 131 nM.

`CNc1cccc(CCOc2ccc(C[C@H](NC(=O)c3sccc3Cl)C(=O)O)cc2)n1` [Example 1.1, N-[(3-chloro-2-thienyl)carbonyl]-O-{2-[6-(methylamino)pyridin-2-yl]ethyl}-L-tyrosine]: the concentration for half-maximal inhibition (IC50) turned out to be 12 nM.

On to `O=C(N[C@@H](Cc1ccc(OCCc2ccc3c(n2)NCCC3)cn1)C(=O)O)c1sccc1Cl` [Example 6, N-[(3-chlorothiophen-2-yl)carbonyl]-3-{5-[2-(5,6,7,8-tetrahydro-1,8-naphthyridin-2-yl)ethoxy]pyridin-2-yl}-L-alanine], for which the IC50 was under 1 nM. In the case of `CNc1cccc(CCOc2ccc(C[C@H](NC(=O)c3ccc(OC)nc3OC)C(=O)O)cc2)n1` [Example 3.2, N-[(2,6-dimethoxypyridin-3-yl)carbonyl]-O-{2-[6-(methylamino)pyridin-2-yl]ethyl}-L-tyrosine], the IC50 turned out to be 352 nM. The same measure for `CNc1cccc(CCOc2ccc(C[C@H](NC(=O)c3ocnc3C)C(=O)O)cc2)n1` [Example 1.18, O-{2-[6-(methylamino)pyridin-2-yl]ethyl}-N-[(4-methyl-1,3-oxazol-5-yl)carbonyl]-L-tyrosine]: 250 nM; for `Cc1noc(C)c1C(=O)N[C@@H](Cc1ccc(CCCc2ccc3c(n2)NCCC3)cc1)C(=O)O` [Example 5.4, N-[(3,5-dimethylisoxazol-4-yl)carbonyl]-4-[3-(5,6,7,8-tetrahydro-1,8-naphthyridin-2-yl)propyl]-L-phenylalanine]: 2.2 nM; for `COc1cscc1C(=O)N[C@@H](Cc1ccc(OCCc2ccc3c(n2)NCCC3)cc1)C(=O)O` [Example 5.1, N-[(4-methoxythiophen-3-yl)carbonyl]-O-[2-(5,6,7,8-tetrahydro-1,8-naphthyridin-2-yl)ethyl]-L-tyrosine]: 42 nM.

In the case of `CNc1cccc(CCOc2ccc(C[C@H](NC(=O)c3c(C)n[nH]c3C)C(=O)O)cc2)n1` [Example 1.13, N-[(3,5-dimethyl-1H-pyrazol-4-yl)carbonyl]-O-{2-[6-(methylamino)pyridin-2-yl]ethyl}-L-tyrosine], the IC50 amounted to 17 nM.

`CNc1cccc(CCOc2ccc(C[C@H](NC(=O)c3cc(C)cs3)C(=O)O)cc2)n1` [Example 1.27, O-{2-[6-(methylamino)pyridin-2-yl]ethyl}-N-[(4-methyl-2-thienyl)carbonyl]-L-tyrosine]: the half-maximal inhibitory concentration (IC50) came out at 50 nM. With `CNc1cccc(CCOc2ccc(C[C@H](NC(=O)c3ccoc3C)C(=O)O)cc2)n1` [Example 1.12, O-{2-[6-(methylamino)pyridin-2-yl]ethyl}-N-(2-methyl-3-furoyl)-L-tyrosine], the IC50 was 21 nM.

As for `CNc1cccc(CCOc2ccc(C[C@H](NC(=O)c3nc(C)oc3C)C(=O)O)cc2)n1` [Example 1.20, N-[(2,5-dimethyl-1,3-oxazol-4-yl)carbonyl]-O-{2-[6-(methylamino)pyridin-2-yl]ethyl}-L-tyrosine], the IC50 came out at 349 nM. The figure for `CNc1cccc(CCOc2ccc(C[C@H](NC(=O)c3c(Cl)c4ccccc4n3C)C(=O)O)cc2)n1` [Example 1.26, N-[(3-chloro-1-methyl-1H-indol-2-yl)carbonyl]-O-{2-[6-(methylamino)pyridin-2-yl]ethyl}-L-tyrosine] is 111 nM; for `CNc1cccc(CCOc2ccc(C[C@H](NC(=O)c3cccnc3Cl)C(=O)O)cc2)n1` [Example 3.1, N-[(2-chloropyridin-3-yl)carbonyl]-O-{2-[6-(methylamino)pyridin-2-yl]ethyl}-L-tyrosine] it is 20 nM; for `O=C(N[C@@H](Cc1ccc(OCCc2ccc3c(n2)NCCO3)cc1)C(=O)O)c1c(Cl)cncc1Cl` [Example 4.1, N-[(3,5-dichloropyridin-4-yl)carbonyl]-O-[2-(3,4-dihydro-2H-pyrido[3,2-b][1,4]oxazin-6-yl)ethyl]-L-tyrosine] it is under 1 nM. The same measure for `CNc1cccc(CCOc2ccc(C[C@H](NC(=O)c3c(C)nn(C)c3C)C(=O)O)cc2)n1` [Example 1.14, O-{2-[6-(methylamino)pyridin-2-yl]ethyl}-N-[(1,3,5-trimethyl-1H-pyrazol-4-yl)carbonyl]-L-tyrosine]: 13 nM; for `CNc1cccc(CCOc2ccc(C[C@H](NC(=O)c3occc3C)C(=O)O)cc2)n1` [Example 1.6, O-{2-[6-(methylamino)pyridin-2-yl]ethyl}-N-(3-methyl-2-furoyl)-L-tyrosine]: 151 nM. On to `CNc1cccc(CCOc2ccc(C[C@H](NC(=O)c3scnc3C)C(=O)O)cc2)n1` [Example 1.16, O-{2-[6-(methylamino)pyridin-2-yl]ethyl}-N-[(4-methyl-1,3-thiazol-5-yl)carbonyl]-L-tyrosine], for which the IC50 was found to be 24 nM.

`O=C(N[C@@H](Cc1ccc(OCCc2ccc3c(n2)NCCC3)nc1)C(=O)O)c1sccc1Cl` [Example 9, N-[(3-chlorothiophen-2-yl)carbonyl]-3-{6-[2-(5,6,7,8-tetrahydro-1,8-naphthyridin-2-yl)ethoxy]pyridin-3-yl}-L-alanine]: the IC50 worked out at 7 nM.

Turning to `CCc1sccc1C(=O)N[C@@H](Cc1ccc(OCCc2ccc3c(n2)NCCC3)cc1)C(=O)O` [Example 5.6, N-[(2-ethylthiophen-3-yl)carbonyl]-O-[2-(5,6,7,8-tetrahydro-1,8-naphthyridin-2-yl)ethyl]-L-tyrosine], the IC50 came to 1 nM. The figure for `CNc1cccc(CCOc2ccc(C[C@H](NC(=O)c3scc(C)c3Cl)C(=O)O)cc2)n1` [Example 1.17, N-[(3-chloro-4-methyl-2-thienyl)carbonyl]-O-{2-[6-(methylamino)pyridin-2-yl]ethyl}-L-tyrosine] is 89 nM.
